The term MIC denotes the least concentration at which growth counts as inhibited.

Like-named read-outs stand apart in the source and are kept apart here.

Test [1] has as its system Staphlococcus epidermidis. As to the kind of experiment: Growth inhibition of a relevant micro-organism by chelator. Type of test: cell-based. The note with it: chelator at 3×10^−6 mol.dm^−3 or less. From the text: Inhibition is considered significant when growth of the relevant micro-organism on a supporting medium can be reduced by at least 30% preferably by at least 45%.

The test system of another test is relevant micro-organism. The note with it: cited from earlier work.

For `O=C(O)CN(CC(=O)O)[C@@H]1CCCC[C@H]1N(CC(=O)O)CC(=O)O` (relative stereo) [CDTA, trans-1,2-diaminocyclohexane-N,N,N′,N′-tetraacetic acid], the “Significant inhibition of growth (reduced by at least 30%)” value in test [1] is “exclude”.
On the same count and under the same terms, with `O=C(O)CN(CCN(CC(=O)O)CC(=O)O)CCN(CC(=O)O)CC(=O)O` [DTPA, diethylenetriaminepentaacetic acid] the entry was “capable of achieving significant inhibition”.
On to `O=C(O)CN(CCN(CC(=O)O)CC(=O)O)CC(=O)O` [EDTA, ethylenediaminetetraacetic acid], for which the “Significant inhibition of growth (reduced by at least 30%)” value in test [1] was “exclude”.
Still for that read-out and setting: with `O=C(O)CN(CCN(CCN(CC(=O)O)CC(=O)O)CC(=O)O)CCN(CC(=O)O)CC(=O)O` [TTHA, triethylenetetraaminehexaacetic acid] the entry was “capable of achieving significant inhibition”.
Turning to `CCO` [ethanol], in the test with relevant micro-organism (ethanol and similar alkanols), the minimum inhibitory concentration (MIC) entry was “greater than 1 mg.ml^−1”.
As for `CC(C)=CCCC(C)=CCCC(C)=CCO` [farnesol, 3,7,11-trimethyldodeca-2,6,10-trienol], the MIC entry in the test on relevant micro-organism (literature values) is given as “ca. 25 μg.ml^−1”.
`Oc1cc(Cl)ccc1Oc1ccc(Cl)cc1Cl` [triclosan, 2′,4,4′-trichloro-2′-hydroxydiphenyl ether]: the MIC with relevant micro-organism (literature values) was 0.01 to 10 µg/mL.
